Measurements published in PubChem BioAssay AID256 (DTP/NCI, 2004).
Values joined by “and” are separate entries in the source; they are usually repeats but may differ in a detail not shown here. Equal values may be shown once. Inconclusive results and toxic doses are left out. Rule for the calls: active = survival T/C of 150% or more; inactive = T/C below 125% in these data.

System: CD2F1 mice, L1210 leukemia ip, survival T/C
Assay: NCI In Vivo Anticancer Drug Screen. Data for tumor model L1210 Leukemia (intraperitoneal) in CD2F1 (CDF1) mice
Settings: higher = longer survival
How it was run: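 Transplantable tumor in mice; compound-treated vs vehicle-treated groups. Read-out = treated/control ratio of the measured endpoint.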

[1] = endpoint: mean survival time, dose: 100.0 mg/kg/injection, schedule: Q04DX003 (ip), vehicle: saline with Tween-80
[2] = endpoint: mean survival time, dose: 200.0 mg/kg/injection, schedule: Q04DX003 (ip), vehicle: saline with Tween-80
[3] = endpoint: mean survival time, dose: 400.0 mg/kg/injection, schedule: Q04DX003 (ip), vehicle: saline with Tween-80
[4] = endpoint: mean survival time, dose: 100.0 mg/kg/injection, schedule: Q01DX009 (ip), vehicle: saline with Tween-80
[5] = endpoint: mean survival time, dose: 200.0 mg/kg/injection, schedule: Q01DX009 (ip), vehicle: saline with Tween-80
[6] = endpoint: mean survival time, dose: 400.0 mg/kg/injection, schedule: Q01DX009 (ip), vehicle: saline with Tween-80
[7] = endpoint: mean survival time, dose: 200.0 mg/kg/injection, schedule: Q04DX002 (ip), vehicle: saline with Tween-80
[8] = endpoint: mean survival time, dose: 100.0 mg/kg/injection, schedule: Q01DX009 (ip), vehicle: saline
[9] = endpoint: mean survival time, dose: 200.0 mg/kg/injection, schedule: Q01DX009 (ip), vehicle: saline
[10] = endpoint: mean survival time, dose: 100.0 mg/kg/injection, schedule: Q04DX003 (ip), vehicle: saline sonified
[11] = endpoint: mean survival time, dose: 200.0 mg/kg/injection, schedule: Q04DX003 (ip), vehicle: saline sonified
[12] = endpoint: mean survival time, dose: 400.0 mg/kg/injection, schedule: Q04DX003 (ip), vehicle: saline sonified
[13] = endpoint: mean survival time, dose: 100.0 mg/kg/injection, schedule: Q04DX003 (ip), vehicle: Klucel (hydroxypropylcellulose) (HPC)
[14] = endpoint: mean survival time, dose: 200.0 mg/kg/injection, schedule: Q04DX003 (ip), vehicle: Klucel (hydroxypropylcellulose) (HPC)
[15] = endpoint: mean survival time, dose: 400.0 mg/kg/injection, schedule: Q04DX003 (ip), vehicle: Klucel (hydroxypropylcellulose) (HPC)
[16] = endpoint: mean survival time, dose: 25.0 mg/kg/injection, schedule: Q04DX002 (ip), vehicle: saline with Tween-80
[17] = endpoint: mean survival time, dose: 50.0 mg/kg/injection, schedule: Q04DX002 (ip), vehicle: saline with Tween-80
[18] = endpoint: mean survival time, dose: 50.0 mg/kg/injection, schedule: Q01DX009 (ip), vehicle: saline with Tween-80
[19] = endpoint: mean survival time, dose: 12.5 mg/kg/injection, schedule: Q01DX009 (ip), vehicle: other
[20] = endpoint: mean survival time, dose: 25.0 mg/kg/injection, schedule: Q01DX009 (ip), vehicle: other

Measured: T/C

[C-]#[N+]C1CCCCC1.[C-]#[N+]C1CCCCC1.[Pd].[S-]c1ccccc1.[S-]c1ccccc1
inactive: endpoint: mean survival time, dose: 3.13 mg/kg/injection, schedule: Q04DX003 (ip), vehicle: distilled water + Tween-80 102 % of control | endpoint: mean survival time, dose: 6.25 mg/kg/injection, schedule: Q04DX003 (ip), vehicle: distilled water + Tween-80 99 % of control | endpoint: mean survival time, dose: 12.5 mg/kg/injection, schedule: Q04DX003 (ip), vehicle: distilled water + Tween-80 89 % of control | endpoint: mean survival time, dose: 25.0 mg/kg/injection, schedule: Q04DX003 (ip), vehicle: distilled water + Tween-80 91 % of control | endpoint: mean survival time, dose: 50.0 mg/kg/injection, schedule: Q04DX003 (ip), vehicle: distilled water + Tween-80 95 % of control | endpoint: mean survival time, dose: 100.0 mg/kg/injection, schedule: Q04DX003 (ip), vehicle: distilled water + Tween-80 89 % of control | endpoint: mean survival time, dose: 200.0 mg/kg/injection, schedule: Q04DX003 (ip), vehicle: distilled water + Tween-80 95 % of control

COc1cc(-c2ccc(-[n+]3nc(Cc4ccc5c(c4)OCO5)nn3-c3ccccc3)c(OC)c2)ccc1-[n+]1nc(Cc2ccc3c(c2)OCO3)nn1-c1ccccc1
inactive: [1] 98 % of control | [2] 97 % of control

O=CNCCc1ccc2c(c1)[nH]c1ccccc12
inactive: endpoint: mean survival time, dose: 100.0 mg/kg/injection, schedule: Q01DX001 (ip), vehicle: saline 95 % of control | endpoint: mean survival time, dose: 200.0 mg/kg/injection, schedule: Q01DX001 (ip), vehicle: saline 98 % of control | endpoint: mean survival time, dose: 400.0 mg/kg/injection, schedule: Q01DX001 (ip), vehicle: saline 98 % of control

Cc1nc2c(N)cc(Cl)cc2[nH]1
inactive: endpoint: median survival time, dose: 25.0 mg/kg/injection, schedule: Q01DX005 (ip), vehicle: saline with Tween-80 101 % of control | endpoint: median survival time, dose: 50.0 mg/kg/injection, schedule: Q01DX005 (ip), vehicle: saline with Tween-80 101 % of control | endpoint: median survival time, dose: 100.0 mg/kg/injection, schedule: Q01DX005 (ip), vehicle: saline with Tween-80 103 % of control

O=C(O)c1cc(Cl)c(C(=O)O)cc1Cl
inactive: [1] 96 % of control | [2] 102 % of control | [3] 105 % of control

c1cc2nc(c1)CSCCCCCCSC2
inactive: [4] 91 % of control | [5] 90 % of control | [6] 91 % of control

Clc1ccc(OCCOc2ccc(Cl)cc2Cl)c(Cl)c1
inactive: [1] 95 % of control | [2] 106 % of control | [3] 100 % of control

O=C(C(=C(c1ccccc1)c1ccccc1)c1ccccc1)c1ccccc1
inactive: endpoint: mean survival time, dose: 100.0 mg/kg/injection, schedule: Q04DX002 (ip), vehicle: saline with Tween-80 93 % of control | [7] 96 % of control | endpoint: mean survival time, dose: 400.0 mg/kg/injection, schedule: Q04DX002 (ip), vehicle: saline with Tween-80 93 % of control

CC12OC3(C)C4C(O)C1C1(C)OC4(C)C3C(O)C21 (stereo unspecified)
inactive: [8] 96 % of control | [9] 102 % of control | endpoint: mean survival time, dose: 400.0 mg/kg/injection, schedule: Q01DX009 (ip), vehicle: saline 98 % of control

CCCCCC(O)CCCCC
inactive: [1] 98 % of control | [2] 94 % of control | [3] 98 % of control

ClCCOCCOc1ccc(C2CCCCC2)cc1
inactive: [10] 97 % of control | [11] 97 % of control | [12] 92 % of control

CCOCc1ccc(C(=O)O)cc1
inactive: [4] 96 % of control | [5] 101 % of control | [6] 101 % of control

COCC/C(COC)=N\N=C(/CCOC)COC
inactive: [8] 102 % of control | [13] 102 % of control | [1] 101 % of control | [9] 108 % of control | [14] 102 % of control | [2] 101 % of control | [15] 114 % of control | [3] 106 % of control

CC(=O)OCc1c(Cl)ccc(Cl)c1Cl
inactive: [4] 98 % of control | [10] 107 % of control | [5] 100 % of control | [11] 96 % of control | [6] 100 % of control | [12] 96 % of control

CCOC(=S)SSC(=S)OCC
inactive: endpoint: mean survival time, dose: 100.0 mg/kg/injection, schedule: Q01DX001 (ip), vehicle: Klucel (hydroxypropylcellulose) (HPC) 92 % of control | endpoint: mean survival time, dose: 200.0 mg/kg/injection, schedule: Q01DX001 (ip), vehicle: Klucel (hydroxypropylcellulose) (HPC) 114 % of control

O=C(Cn1[nH]c(=O)ccc1=O)c1ccccc1
inactive: endpoint: mean survival time, dose: 12.5 mg/kg/injection, schedule: Q04DX002 (ip), vehicle: saline with Tween-80 95 % of control | [16] 100 % of control | [17] 91 % of control and 92 % of control | [7] 94 % of control

CC(C)=CCN1C(=O)c2ccccc2C1=O
inactive: endpoint: mean survival time, dose: 25.0 mg/kg/injection, schedule: Q01DX009 (ip), vehicle: saline with Tween-80 102 % of control | endpoint: mean survival time, dose: 25.0 mg/kg/injection, schedule: Q04DX003 (ip), vehicle: saline with Tween-80 101 % of control | [18] 98 % of control | endpoint: mean survival time, dose: 50.0 mg/kg/injection, schedule: Q04DX003 (ip), vehicle: saline with Tween-80 101 % of control | [4] 96 % of control | [1] 110 % of control

O=C(CCl)N1CCc2ccccc21
inactive: [13] 98 % of control | [14] 103 % of control | [15] 97 % of control

C/C=C/CC1(Cc2ccccc2)C(=O)NC(=S)NC1=O
inactive: endpoint: mean survival time, dose: 9.5 mg/kg/injection, schedule: Q01DX001 (ip), vehicle: other 108 % of control | endpoint: mean survival time, dose: 19.0 mg/kg/injection, schedule: Q01DX001 (ip), vehicle: other 111 % of control

O=S(=O)(N/N=C/c1ccncc1)c1ccccc1
inactive: endpoint: mean survival time, dose: 12.5 mg/kg/injection, schedule: Q04DX003 (ip), vehicle: water 98 % of control | endpoint: mean survival time, dose: 25.0 mg/kg/injection, schedule: Q04DX003 (ip), vehicle: water 98 % of control | endpoint: mean survival time, dose: 50.0 mg/kg/injection, schedule: Q04DX003 (ip), vehicle: water 104 % of control | endpoint: mean survival time, dose: 100.0 mg/kg/injection, schedule: Q04DX003 (ip), vehicle: water 106 % of control | endpoint: mean survival time, dose: 200.0 mg/kg/injection, schedule: Q04DX003 (ip), vehicle: water 112 % of control | endpoint: mean survival time, dose: 400.0 mg/kg/injection, schedule: Q04DX003 (ip), vehicle: water 108 % of control

C=CCN(CC=C)CCSC(=S)NCCOC
inactive: [18] 97 % of control | [4] 113 % of control | [5] 97 % of control

Cc1nc(Cl)c(C)c(C(=O)O)n1
inactive: [19] 98 % of control | [20] 102 % of control | endpoint: mean survival time, dose: 50.0 mg/kg/injection, schedule: Q01DX009 (ip), vehicle: other 104 % of control | endpoint: mean survival time, dose: 100.0 mg/kg/injection, schedule: Q01DX009 (ip), vehicle: other 96 % of control

CC1/C(=N/O)C(=O)c2ccccc21 (stereo unspecified)
inactive: [18] 102 % of control | endpoint: mean survival time, dose: 100.0 mg/kg/injection, schedule: Q01DX001 (ip), vehicle: saline with Tween-80 91 % of control | [4] 86 % of control | endpoint: mean survival time, dose: 200.0 mg/kg/injection, schedule: Q01DX001 (ip), vehicle: saline with Tween-80 97 % of control

CC(=O)OC1CCC2(C)C(=CCC3C2CCC2(C)C(C(C)CCCC(C)C)CCC32)C1 (stereo unspecified)
inactive: endpoint: mean survival time, dose: 50.0 mg/kg/injection, schedule: Q01DX009 (ip), vehicle: Klucel (hydroxypropylcellulose) (HPC) 96 % of control | endpoint: mean survival time, dose: 100.0 mg/kg/injection, schedule: Q01DX009 (ip), vehicle: Klucel (hydroxypropylcellulose) (HPC) 93 % of control | endpoint: mean survival time, dose: 200.0 mg/kg/injection, schedule: Q01DX009 (ip), vehicle: Klucel (hydroxypropylcellulose) (HPC) 86 % of control

O=C1C2C3CC4C2C(Br)C2C1C3C42 (stereo unspecified)
inactive: [16] 104 % of control | [17] 100 % of control

Cc1c(O)c2c(c(O)c1Cc1cccc(CN)c1)C(=O)c1ccccc1C2=O
inactive: endpoint: mean survival time, dose: 1.56 mg/kg/injection, schedule: Q01DX009 (ip), vehicle: other 101 % of control | endpoint: mean survival time, dose: 3.13 mg/kg/injection, schedule: Q01DX009 (ip), vehicle: other 93 % of control | endpoint: mean survival time, dose: 6.25 mg/kg/injection, schedule: Q01DX009 (ip), vehicle: other 87 % of control | [19] 90 % of control | [20] 94 % of control

COC1OC(CSC#N)C2OC(C)(C)OC12 (stereo unspecified)
inactive: endpoint: mean survival time, dose: 5.0 mg/kg/injection, schedule: Q01DX001 (ip), vehicle: saline 97 % of control | endpoint: mean survival time, dose: 10.0 mg/kg/injection, schedule: Q01DX001 (ip), vehicle: saline 101 % of control | endpoint: mean survival time, dose: 20.0 mg/kg/injection, schedule: Q01DX001 (ip), vehicle: saline 101 % of control | endpoint: mean survival time, dose: 40.0 mg/kg/injection, schedule: Q01DX001 (ip), vehicle: saline 101 % of control
